# In patent publication US4292318A, “Product and method for combating swine dysentery” (priority 1979, dated 1981):
# Assays:
# [1] = Acute toxicity in the guinea pig by esophageal administration; assay type: in vivo
# Method: (§1) The compound was tested for acute toxicity by several modes of administration in four species, namely mice, rat, guinea pig, and rabbit. […] The results are given below in Tables 3, 4, 5 and 6.
# [2] = Chronic toxicity in the female mouse; assay type: in vivo; settings: for Dead/Treated / Body Weight in g (m ± SE) Start / Body Weight in g (m ± SE) Termination: gastric lavage, 18 weeks; for Fresh Organ-to-Body-Weight Ratio, Heart / Fresh Organ-to-Body-Weight Ratio, Kidneys / Fresh Organ-to-Body-Weight Ratio, Liver / Fresh Organ-to-Body-Weight Ratio, Lungs: m ± SE, 4 animals; for Blood Glucose / SGOT / SGPT: mean of 6 animals, 24 hours after last dose
# Excerpt: In view of the favourable sub-acute toxicity, the chronic toxicity in female mice was studied.
# [3] = Acute toxicity by several modes of administration in four species; assay type: in vivo, and rabbit; settings: mice, rat, guinea pig, rabbit
# Method: as §1
# Teratogenetic study, rat = assay type: in vivo; settings: 250 mg/kg/day oral, same conditions as mouse
# Method: (§2) In view of the favourable results on chronic toxicity, a teratogenic study was conducted with male and female mice and rats.
# b. Animal Species. Rat. Same experimental conditions as with the mouse.
# [4] = Subacute toxicity in female rats; assay type: in vivo, rat; settings: 2 g/kg/day by gastric lavage for 21 days
# [5] = Acute toxicity in the rat; assay type: in vivo; settings: for Dead/Treated within 21 days / Body weight (m ± SEM) in g. start / Body weight (m ± SEM) in g. Termination: First Experiment; for Body weight (m ± SEM) in g. Termination: Student's t test: t 0.05
# Method: as §1
# [6] = Teratogenetic study, mouse; assay type: in vivo; settings: 250 mg/kg/day oral, 3rd to 13th days
# Method: as §2
# a. Animal Species: Mouse, Male and female mice housed together for 10
# Oral treatment from 3rd day to 13th days.
# [7] = Teratogenic study with male and female mice and rats; assay type: in vivo
# Method: as §2
# General safety statement = settings: statement in the description
# [8] = Acute toxicity in female mice; assay type: in vivo
# Method: as §1
# [9] = Acute toxicity in the rabbit by esophageal administration; assay type: in vivo
# Method: as §1
# [10] = Subacute toxicity in the mouse; assay type: in vivo; settings: for SGOT / SGPT: 24 hrs. after last dose
# Method: In view of the favourable acute toxicity data, the compound was administered orally in sub-acute, but relatively large, doses to mice and rats for 15 days. Data were collected on the effects on death rate, weight, liver, and kidneys.
# [11] = system: five strains of Vibrio cholerae; assay: In vitro effect on five strains of Vibrio cholerae (summary)
# Treponema hyodysenteriae = assay: In vitro test against Treponema hyodysenteriae (MIC, MBC); assay type: cell-based; settings: Brachyspira hyodysenteriae, lowest concentration in a dilution series where growth is inhibited, read-out: minimum inhibitory concentration
# Method: D was tested in vitro against Treponema hyodysenteriae by a known method. The minimum inhibitory concentration (the lowest concentration of compound in a dilution series where growth is inhibited) was 0.1 mcg/ml. The minimum bactericidal concentration (the lowest concentration of compound in which no viable treponemes are observed upon dilution and subculture from the broth onto blood agar plates) was greater than 0.1 mcg/ml but less than 1 mcg/ml.
# [12] = Second Experiment, F, esophageal, 4000 mg/kg
# [13] = Second Experiment, F, intraperitoneal, 500 mg/kg
# [14] = Second Experiment, M, esophageal, 4000 mg/kg
# [15] = Second Experiment, M, intraperitoneal, 500 mg/kg
# [16] = 500 mg/kg/day by gastric lavage for 15 days
# [17] = in adraganth gum, 1 g/kg/day for 15 days
smiles,measurement,setting,value
"CCC(C)c1cnc(CC(C)C)c(=O)n1O [D, D-aspergillic acid]",Dead/Treated within 21 days,[1]; 500 mg/kg,0/4
same,Dead/Treated within 21 days,[1]; 1000 mg/kg,1/4
same,Dead/Treated within 21 days,[1]; 2000 mg/kg,5/6
same,Dead/Treated within 21 days,[1]; 4000 mg/kg,6/6
same,Urine Amount excreted by 6 animals in 6 hours,[2]; 250 mg/kg/day,6.5 mL
same,Dead/Treated,[2]; 250 mg/kg/day,0/10
same,Body Weight in g (m ± SE) Start,[2]; 250 mg/kg/day,27.3 ± 0.5 g
same,Body Weight in g (m ± SE) Termination,[2]; 250 mg/kg/day,26.7 ± 0.7 g
same,"Fresh Organ-to-Body-Weight Ratio, Heart",[2]; 250 mg/kg/day,0.60 ± 0.08
same,"Fresh Organ-to-Body-Weight Ratio, Kidneys",[2]; 250 mg/kg/day,0.87 ± 0.08
same,"Fresh Organ-to-Body-Weight Ratio, Liver",[2]; 250 mg/kg/day,4.57 ± 0.25
same,"Fresh Organ-to-Body-Weight Ratio, Lungs",[2]; 250 mg/kg/day,0.731 ± 0.035
same,Blood Glucose,[2]; 250 mg/kg/day,1.10
same,SGOT,[2]; 250 mg/kg/day,118 Units/ml
same,SGPT,[2]; 250 mg/kg/day,5 Units/ml
same,Urine Amount excreted by 6 animals in 6 hours,[2]; 500 mg/kg/day,7 mL
same,Dead/Treated,[2]; 500 mg/kg/day,2/10
same,Body Weight in g (m ± SE) Start,[2]; 500 mg/kg/day,30.4 ± 0.9 g
same,Body Weight in g (m ± SE) Termination,[2]; 500 mg/kg/day,30.0 ± 0.7 g
same,"Fresh Organ-to-Body-Weight Ratio, Heart",[2]; 500 mg/kg/day,0.47 ± 0.02
same,"Fresh Organ-to-Body-Weight Ratio, Kidneys",[2]; 500 mg/kg/day,1.07 ± 0.04
same,"Fresh Organ-to-Body-Weight Ratio, Liver",[2]; 500 mg/kg/day,4.66 ± 0.91
same,"Fresh Organ-to-Body-Weight Ratio, Lungs",[2]; 500 mg/kg/day,1.011 ± 0.110
same,Blood Glucose,[2]; 500 mg/kg/day,1.06
same,SGOT,[2]; 500 mg/kg/day,159 Units/ml
same,SGPT,[2]; 500 mg/kg/day,6 Units/ml
same,acute toxicity,[3],low order of toxicity
same,Body Weight of Foetuses in g (m ± SE),"Teratogenetic study, rat",7.08 ± 0.19 g
same,No. of Foetuses with malformations,"Teratogenetic study, rat",0
same,No. of living Foetuses per Delivery (m ± SE),"Teratogenetic study, rat",10.8 ± 0.86
same,Pregnant/Treated Animals,"Teratogenetic study, rat",7/10
same,"Average Percent Weight of Fresh Organs, Kidneys","[4]; 5 animals, NS",1.04 ± 0.03%
same,"Average Percent Weight of Fresh Organs, Liver","[4]; 5 animals, NS",4.54 ± 0.10%
same,"Average Percent Weight of Fresh Organs, Lung","[4]; 5 animals, NS",1.07 ± 0.09%
same,Body Weight in g (m ± SE) Start,[4]; start,204.1 ± 2.0 g
same,Body Weight in g (m ± SE) Termination,[4]; termination,210.6 ± 9.6 g
same,Dead/Treated,"[4]; D, death caused by a mistake in esophagus incannulation",1/6
same,Dead/Treated within 7 days,"[5]; Cumulative data regardless of sex, esophageal, 4000 mg/kg",0/16
same,Dead/Treated within 7 days,"[5]; Cumulative data regardless of sex, intraperitoneal, 500 mg/kg",4/16
same,Dead/Treated within 21 days,"[5]; F, endoperitoneal, 500 mg/kg",2/4
same,Body weight (m ± SEM) in g. start,"[5]; F, endoperitoneal, 500 mg/kg",206.2 ± 8.7 g
same,Dead/Treated within 21 days,"[5]; F, esophageal, 4000 mg/kg",0/4
same,Body weight (m ± SEM) in g. start,"[5]; F, esophageal, 4000 mg/kg",201.2 ± 4.2 g
same,Body weight (m ± SEM) in g. Termination,"[5]; F, esophageal, 4000 mg/kg",238.2 ± 12.1 g
same,Dead/Treated within 21 days,"[5]; M, endoperitoneal, 500 mg/kg",1/4
same,Body weight (m ± SEM) in g. start,"[5]; M, endoperitoneal, 500 mg/kg",234.0 ± 6.2 g
same,Body weight (m ± SEM) in g. Termination,"[5]; M, endoperitoneal, 500 mg/kg",314.3 ± 10.3 g
same,Dead/Treated within 21 days,"[5]; M, esophageal, 4000 mg/kg",0/4
same,Body weight (m ± SEM) in g. start,"[5]; M, esophageal, 4000 mg/kg",234.5 ± 13.8 g
same,Body weight (m ± SEM) in g. Termination,"[5]; M, esophageal, 4000 mg/kg",288.7 ± 13.8 g
same,Dead/Treated within 7 days,[5]; [12],0/4
same,Body weight (±SE) in g. start,[5]; [12],252.0 ± 16.6 g
same,Body weight (±SE) in g. Termination,[5]; [12],253.5 ± 12.1 g
same,Dead/Treated within 7 days,[5]; [13],0/4
same,Body weight (±SE) in g. start,[5]; [13],232.5 ± 5.9 g
same,Body weight (±SE) in g. Termination,[5]; [13],218.2 ± 7.0 g
same,Dead/Treated within 7 days,[5]; [14],0/4
same,Body weight (±SE) in g. start,[5]; [14],222.5 ± 6.2 g
same,Body weight (±SE) in g. Termination,[5]; [14],231.7 ± 15.7 g
same,Dead/Treated within 7 days,[5]; [15],2/4
same,Body weight (±SE) in g. start,[5]; [15],226.2 ± 6.8 g
same,Body Weight of Foetuses in g (m ± SE),[6],1.42 ± 0.05 g
same,No. of Foetuses with malformations,[6],0
same,No. of living Foetuses per Delivery (m ± SE),[6],10.3 ± 0.6
same,Pregnant/Treated Animals,[6],3/10
same,number of young delivered live at birth,[7],comparable with controls
same,malformations,[7]; either group,No malformations
same,nitrogenic (so in the source),General safety statement,not nitrogenic
same,Dead/Treated Animals after 7 days,"[8]; endoperitoneal, 250 mg/kg",0/18
same,Dead/Treated Animals after 7 days,"[8]; endoperitoneal, 500 mg/kg",6/12
same,Dead/Treated Animals after 2 days,"[8]; endoperitoneal, 1000 mg/kg, 2 days",6/6
same,Dead/Treated Animals after 7 days,"[8]; endoperitoneal, 1000 mg/kg",6/6
same,Dead/Treated Animals after 1 day,"[8]; endoperitoneal, 2000 mg/kg, 1 day",6/6
same,Dead/Treated Animals after 7 days,"[8]; endoperitoneal, 2000 mg/kg",6/6
same,Dead/Treated Animals after 7 days,"[8]; esophageal, 1000 mg/kg",0/12
same,Dead/Treated Animals after 7 days,"[8]; esophageal, 2000 mg/kg",0/12
same,Dead/Treated Animals after 4 days,"[8]; esophageal, 4000 mg/kg, 4 days",1/12
same,Dead/Treated Animals after 7 days,"[8]; esophageal, 4000 mg/kg",1/12
same,Dead/Treated within 7 days,[9]; 500 mg/kg,0/2
same,Body Weight in g. start,"[9]; 500 mg/kg, start",2000 to 2100 g
same,Dead/Treated within 7 days,[9]; 1000 mg/kg,0/4
same,Body Weight (m ± SE) in g. start,"[9]; 1000 mg/kg, start",2037 ± 104.3 g
same,Body Weight (m ± SE) in g. Termination,"[9]; 1000 mg/kg, termination",1922.5 ± 71.5 g
same,Dead/Treated within 7 days,[9]; 2000 mg/kg,0/2
same,"dead out of treated animals, within 4 days (footnote)","[9]; 2000 mg/kg, within 4 days",two dead out of seven treated animals
same,% Body Weight Change,[10]; [16],-8.1 ± 3.9%
same,Dead/Treated,[10]; [16],0/10
same,"Fresh Organ-to-Body Weight Ratio, Kidneys",[10]; [16],1.5 ± 0.1
same,"Fresh Organ-to-Body Weight Ratio, Liver",[10]; [16],5.9 ± 0.3
same,% Body Weight Change,"[10]; in H2O, 1 g/kg/day for 15 days",18.5 ± 0.75%
same,Dead/Treated,"[10]; in H2O, 1 g/kg/day for 15 days",2/12
same,% Body Weight Change,[10]; [17],16.27 ± 1.31%
same,Dead/Treated,[10]; [17],3/12
same,SGOT,[10]; in adraganth gum,132 Units/ml
same,SGPT,[10]; in adraganth gum,10 Units/ml
same,SGOT,[10]; in water,124 Units/ml
same,SGPT,[10]; in water,9 Units/ml
same,growth of 3 of the organisms,"[11]; 10 mcg/ml, after 48 hours",no growth
same,growth of the remaining two organisms,[11]; 100 mcg/ml,only marginal growth
same,MIC,Treponema hyodysenteriae,0.1 µg/mL
